Measurements reported in patent US11213506B2, “Combination therapy for the treatment or prevention of tumours” (QBIOTICS PTY LTD, priority 2017, dated 2022).

Experiments:
[1] = system: mouse stroma in SK-MEL-28 human melanoma xenografts; assay: Gene expression changes in mouse tumour stroma (Illumina BeadChip); assay type: in vivo, BALB/c Foxn1nu mouse; details: 30 μg Compound 1 injected into the tumour
Protocol: The SK-MEL-28 human melanoma cell line was injected subcutaneously (s.c) into 2 sites on the flanks of each BALB/c Foxn1nu mouse (2 million cells/site) and allowed to grow to approximately 7 mm diameter. Each tumour was then injected with 50 μl of 20% propylene glycol containing 30 μg Compound 1 or with 50 μl of 20% propylene glycol. At different times after injection a mouse was euthanased and the tumours harvested, the skin covering removed, and the intact tumours stored at −80° C.
RNA was extracted from 30 mg of frozen tumour using the Qiagen RNeasy Plus Mini Kit, according to manufacturer's instructions, then quantitated with a NanoDrop instrument and integrity confirmed on denaturing agarose gels bearing a 1 kb DNA marker and stained with ethidium bromide.
Approximately 500 ng of total unlabelled RNA was adjusted to a final volume of 11 μl with nuclease-free water. The RNA was incubated with 9 μl of the reverse transcriptase master mix (1 μl of T7 Oligo (dT) Primer, 2 μl of 10× first strand buffer, 4 μl of dNTP mix, 1 μl of RNase inhibitor and 1 μl of ArrayScript) at 42° C. for 2 h. This was followed by the second strand cDNA synthesis step which involved a further incubation at 16° C. for 2 hr with 80 μl of the second strand master mix (63 μL nuclease-free water, 10 μl 10× second strand buffer, 4 μl dNTP mix, 2 μl DNA polymerase and 1 μl RNase H). The cDNA was purified by filtering through a cDNA Filter Cartridge with 250 μl of cDNA binding buffer and washing with 500 μl of the wash buffer provided in the kit. Purified cDNA was eluted with 20 μl of 55° C. nuclease-free water. Each cDNA sample was incubated with 7.5 μl of the IVT master mix (2.5 μl of T7 10× reaction buffer, 2.5 μl of T7 enzyme mix and 2.5 μl biotin-NTP mix) at 37° C. for 16 h. The reaction was stopped with the addition of 75 μl of nuclease-free water to each cRNA sample. The biotinylated, amplified RNA was purified by filtering the cRNA samples through cRNA Filter Cartridges with 350 μL of cRNA binding buffer and 250 μl of 100% ethanol mixed together prior to loading onto the filters. The cRNA filter cartridges with attached RNA were then washed with 650 μl of wash buffer before eluting purified cRNA with 200 μl of 55° C. nuclease-free water.
The cRNA samples were heated at 65° C. for 5 min and collected by pulse centrifugation. After heating at 65° C. for 5 min, approximately 750 ng of the cRNA sample was aliquoted into separate tubes to which were added ˜5 μl of RNase-free water and 10 μl of Hyb Mix. […]
BeadChips were read by the iScan System, and transferred via GenomeStudio into GeneSpring GX v12.5 (Agilent Technologies, Santa Clara, Calif., USA). […] The entities were filtered based on the detection score calculated by GenomeStudio where p≤0.05 was considered significant.

[2] = system: A431 cells; assay: ATP release assay; assay type: cell-based, human; details: both concentrations (500 and 300 μM), within 60 minutes
Protocol: (§1) A431 (human epidermoid carcinoma), MM649 (human melanoma) and B16-OVA (B16-F10 mouse melanoma cell line stably transfected with chicken ovalbumin) were cultured in RPMI-1640, 10% FCS (complete medium) at 37° C., 5% CO2 in a humidified incubator. BMDCs were cultured in R10 media (RPMI, 10% FCS, 2 mM glutamine, 50 μM beta-mercaptoethanol, Pen/Strep). All cell lines used in this study were confirmed as mycoplasma negative using MycoAlert (Lonza). STR profiling was also performed to confirm the identity of the human cell lines used.
(§2) Cell lines were plated at a density of 10,000 cells per well into clear 96-well plates (Corning, #3595; 100 μl of complete media) and the resultant plates incubated overnight as previously detailed. The following day, media was aspirated from each well and 50 μl of fresh medium was inserted. Stock solutions of Compounds 1, 2, 3 and 4 were diluted to 2× final assay concentration (1 mM and 600 μM) and 50 μl of these dilutions added to the required wells. Ethanol only control solutions were also compiled and administered. At the indicated timepoints, 80 μl of media was removed, centrifuged at 1,200 rpm for 4 mins to pellet cell debris and 50 μl assayed for ATP using a bioluminescence based ATP assay kit (FLAA, Sigma-Aldrich). Relative luminescence units were recorded for each sample using a Hybrid Synergy H4 plate reader (BioTek).

[3] = system: MM649 cells; assay: ATP release assay; assay type: cell-based, human; details: both concentrations (500 and 300 μM), within 60 minutes
Protocol: as §1, §2

[4] = system: B16-OVA cells; assay: ATP release assay; assay type: cell-based, mouse; details: both concentrations (500 and 300 μM), within 60 minutes
Protocol: as §1, §2

[5] = system: A431 cells; assay: HMGB1 release assay (ELISA); assay type: cell-based, human; details: within 120 minutes
Protocol: as §1
(§3) Cell lines (A431, MM649 and B16-OVA) were plated into T75 cm^2 flasks (Nunc) in 10 ml of complete media and cultured at 37° C., 5% CO2 until they reached 90% confluency. Compounds 1, 2, 3 and 4 were diluted in 5 ml of identical media to a final concentration of 500 and 300 μM and then administered to the cells. Several flasks were prepared such that a kinetic curve of HMGB1 release in response to drug treatment could be established. Ethanol only controls were also generated. At the required timepoint, media was removed from the flask into a 10 ml polypropylene tube that was placed on ice for 5 mins. […] OD450 nm values were determined using a Hybrid Synergy H4 plate reader (BioTek). Absorbance values from drug treated samples were normalized to vehicle treated samples to determine the fold increase in HMGB1 release in response to epoxytigliane treatment.

[6] = system: MM649 cells; assay: HMGB1 release assay (ELISA); assay type: cell-based, human; details: within 120 minutes
Protocol: as §1, §3

**Q.** `C/C=C(\C)C(=O)O[C@@H]1[C@@H](C)[C@@]2(O)[C@H]([C@@H]3C(C)(C)[C@]13OC(=O)[C@@H](C)CC)[C@@H]1O[C@]1(CO)[C@@H](O)[C@]1(O)C(=O)C(C)=C[C@H]12` [Compound 1, 12-tigloyl-13-(2-methylbutanoyl)-6,7-epoxy-4,5,9,12,13,20-hexahydroxy-1-tiglien-3-one] was tested. Which “Cxcl1 expression at the tumour site” value [1] did it give?
**A.** heavily upregulated

**Q.** What about the “expression of host cytokines/chemokines important for recruitment/activation of immune cells at the tumour site” value [1] of the same molecule?
**A.** upregulated

**Q.** And the “host gene expression changes associated with a Th-1/M-like response: IFN-γ, TNF, IL-δ and IL-1β” value [1]?
**A.** induction

**Q.** What about the “TGF beta signalling (pathway analysis of gene expression)” value ([1]; t=8 h) of the same molecule?
**A.** downregulation

**Q.** And the ATP release [2]?
**A.** significant release of ATP

**Q.** And the ATP release [3]?
**A.** significant release of ATP

**Q.** What about the ATP release [4] of the same molecule?
**A.** significant release of ATP

**Q.** And the “increase in HMBG1 release, normalised to vehicle treated cells” value [5]?
**A.** up to 40%

**Q.** And the “increase in HMBG1 release, normalised to vehicle treated cells” value [6]?
**A.** up to 40%
